Test results as given in patent US8080524B2, “Agent for slowing hair loss and/or stimulating hair growth” (Centre National de la Recherche Scientifique (CNRS), priority 2005, dated 2011).
Residues, ends and D or L forms follow the SMILES beside them.

Tests used:
[1] = tested on: cells in mitosis (Ki67) in epithelial sheath of human hair explants; assay: Anti-Ki67 immunolabelling of cells in mitosis along the epithelial sheath of hairs; type: cell-based; details: for increase in number of cells in mitosis compared to control hair: D8 of treatment
Experimental: (§1) Study of the stimulating activity of tetrapeptide AcSDKP on the growth of isolated hairs maintained in a state of ex vivo survival. This study was conducted on 66 human hair explants obtained from scalp-plasty.
(§2) Hairs comprised of hair follicles were isolated by micro dissection and individually placed in wells (96-well culture plate) and maintained in survival for 15 days under conventional tissue culturing conditions (37° C., 5% CO2) in Williams medium.
(§3) Tetrapeptide AcSDKP added to the culture medium was tested at three concentrations: 10^−4 M, 10^−7 M and 10^−10 M. Minoxidil (2/1 diamino 6-piperidinopyrimidine 3-oxide) at a concentration of 10^−5 M was used as a positive control.
(§4) On D8 and D15 of treatment, six hairs from each batch (untreated control, Minoxidil, +AcSDKP 10^−4 M, +AcSDKP 10^−7 M, +AcSDKP 10^−10 M) were removed and prepared for histological study.
(§5) Three explants from each batch were fixed in ordinary Bouin and the three other hairs were frozen and stored at −80° C.
In addition to measurements of the length of each hair, the general morphology of each hair was analysed and the expression of laminin 5 and collagen IV, two constituents of the basal membrane, was evaluated. Moreover, immunolabeling with anti-Ki67 antibodies (nuclear protein expressed in growing cells) was carried out of cells in mitosis in order to establish the mitotic index of follicle structures.
This study was conducted on cuts of frozen hairs.

type IV collagen = assay: Immunolabelling of type IV collagen on frozen hair cuts; type: cell-based, human
Experimental: as §1, §2, §3
On D8 and D15 of treatment, six hairs from each batch (untreated control, Minoxidil, +AcSDKP 10^−4 M, +AcSDKP 10^−7 M, +AcSDKP 10^−10 M) were removed and prepared for histological study. […]
In addition to measurements of the length of each hair, the general morphology of each hair was analysed and the expression of laminin 5 and collagen IV, two constituents of the basal membrane, was evaluated. […]
Immunolabelling of type IV collagen was carried out on frozen cuts of the control hairs and hairs treated with AcSDKP or Minoxidil in order to quantify this constituent of the basal membrane which separates the dermal compartment from the epithelial compartment.

[2] = tested on: epithelial sheaths of human hair explants; assay: General morphology of hair histological cuts stained with Masson Trichromium (neo-keratinocytes); type: cell-based
Experimental: as §1, §2, §3, §4, §5
Analysis of the general morphology of histological cuts stained with Masson Trichromium focusing on the area between the opening of the sebaceous glands and the hair bulb.
Hairs cultured on D0 naturally undergo changes during survival as is observed after an in vivo graft. The restructuring effect of AcSDKP was visualised through the appearance of neo-keratinocytes along the conjunctival sheath which migrate from the bulge and to a lesser extent from the bulb, two regions where stem cells are found. […] This effect leads to clear appearance of neo-keratinocytes along the length of the hair, from the epidermis to the bulb. The structure of the neo-keratinocytes formed in this way is uniform and stratified. It varies as a function of treatment time and AcSDKP concentration. The clearest activity was found on D15 of treatment with AcSDKP at 10^−10 M.

human hair explants = assay: Growth (length) of isolated human hairs maintained in ex vivo survival; type: cell-based
Experimental: as §1, §2, §3
Culture mediums containing the compounds to be tested were renewed every three days.
Hairs were photographed using a microscope and a CCD camera coupled to acquisition software and archiving.
Each hair was measured on D0, D3, D6, D8, D10, D13 and D15 using a LEICA IM1000 measurement module to give measurements in μm.
Each hair was photographed and its length evaluated using software giving values in μm.

laminin 5 = assay: Immunolabelling of laminin 5 in hair cuts; type: cell-based, human
Experimental: Study of the stimulating activity of tetrapeptide AcSDKP on the growth of isolated hairs maintained in a state of ex vivo survival. This study was conducted on 66 human hair explants obtained from scalp-plasty. Hairs comprised of hair follicles were isolated by micro dissection and individually placed in wells (96-well culture plate) and maintained in survival for 15 days under conventional tissue culturing conditions (37° C., 5% CO2) in Williams medium. Tetrapeptide AcSDKP added to the culture medium was tested at three concentrations: 10^−4 M, 10^−7 M and 10^−10 M. Minoxidil (2/1 diamino 6-piperidinopyrimidine 3-oxide) at a concentration of 10^−5 M was used as a positive control. On D8 and D15 of treatment, six hairs from each batch (untreated control, Minoxidil, +AcSDKP 10^−4 M, +AcSDKP 10^−7 M, +AcSDKP 10^−10 M) were removed and prepared for histological study. Three explants from each batch were fixed in ordinary Bouin and the three other hairs were frozen and stored at −80° C. In addition to measurements of the length of each hair, the general morphology of each hair was analysed and the expression of laminin 5 and collagen IV, two constituents of the basal membrane, was evaluated. Moreover, immunolabeling with anti-Ki67 antibodies (nuclear protein expressed in growing cells) was carried out of cells in mitosis in order to establish the mitotic index of follicle structures. Laminin 5, another constituent of the basal membrane, is present in the bulb around the dermal papilla as well as in the median section of hair. […] Nevertheless, expression of laminin 5 was higher on D15 with AcSDKP at 10^−7 M (FIG. 4B).

keratin 19 (CK19) = assay: Immunolabelling of keratin 19 (CK19), epithelial stem cell marker, on frozen hair cuts; type: cell-based, human
Experimental: as §1, §2, §3, §4, §5
Immunolabeling of keratin 19 (CK19) was carried out on frozen cuts of control hairs and hairs treated with AcSDKP or Minoxidil in order to evaluate the proportion of undifferentiated primitive cells (or even stem cells) present in the external epithelial sheaths of the hair follicles. […]

`CC(=O)N[C@@H](CO)C(=O)N[C@@H](CC(=O)O)C(=O)N[C@@H](CCCCN)C(=O)N1CCC[C@H]1C(=O)O` [AcSDKP, CH3CO-Ser-Asp-Lys-Pro-OH] (Ac-SDKP-OH) was tested, and the “Average number of cells in mitosis per mm of hair” value (from here on “Average number … per mm of hair”) ([1]; 10^−4 M, D8) was 35.4 per mm of hair, the “Average number … per mm of hair” value ([1]; 10^−4 M, D15) was 23.4 per mm of hair and the “Average number … per mm of hair” value ([1]; 10^−7 M, D8) was 34 per mm of hair. The “Average number … per mm of hair” value ([1]; 10^−7 M, D15) was 21.5 per mm of hair, the “Average number … per mm of hair” value ([1]; 10^−10 M, D8) was 52.6 per mm of hair and the “increase in number of cells in mitosis compared to control hair” value ([1]; 10^−10 M) was “+300%”. For the same compound, the “Average number … per mm of hair” value ([1]; 10^−10 M, D15) was 29.3 per mm of hair, the “number of cells in mitosis in treated hair compared to control hair” value ([1]; three concentrations tested (10^−4 M, 10^−7 M, 10^−10 M)) was “significantly increases” and the “increase in collagen levels” value (type IV collagen; 10^−10 M, D8 and D15) was “all the more marked”. For the same compound, the “collagen IV in the bulb and median section of hair” value (type IV collagen; three concentrations tested, as of D8 of treatment) was “very clear increase”, the “thickness of neo-keratinocyte structure” value ([2]; 10^−4 M, 10^−7 M and especially 10^−10 M, D15) was “increasingly thicker” and the “adhesion of epithelial sheaths to collagen” value ([2]; 10^−4 M, D8) was “more or less detached”. The neo-keratinocyte sites ([2]; 10^−4 M, D8) was “absent”, the “adhesion of epithelium to the underlying collagen” value ([2]; two active concentrations (10^−7 M and 10^−10 M), D8) was “adheres fully” and the “hair growth (length of hair)” value (human hair explants; AcSDKP 10^−10 M in culture medium, D15 of treatment) was “significantly stimulates hair growth”. For the same compound, the “hair growth (difference in the hair shafts)” value (human hair explants; AcSDKP at higher concentrations (10^−4 M, 10^−7 M), D15) was “no significant difference”, the “expression of laminin 5” value (laminin 5; 10^−7 M, D15) was “higher” and the “laminin 5 effect in the median zone of hair” value (laminin 5; 10^−10 M, D8 of treatment) was “considerably more marked”. For the same compound, the “level of laminin 5 in hair structures” value (laminin 5; following exposure of hair to AcSDKP) was “significant increase”, the “increase in CK19 levels” value (keratin 19 (CK19); 10^−10 M, D8 and D15 of treatment) was “maximal” and the “expression of CK19 compared to control hair and to hair treated with Minoxidil” value (keratin 19 (CK19); hair kept in survival in the presence of the tetrapeptide) was “significantly greater”.
`Nc1cc(N2CCCCC2)nc(N)[n+]1[O-]` [Minoxidil, 2/1 diamino 6-piperidinopyrimidine 3-oxide, reference compound] was tested, and the “Average number … per mm of hair” value ([1]; 10^−5 M, D8) was 18.5 per mm of hair, the “increase in number of cells in mitosis compared to control hair” value ([1]; 10^−5 M) was “+38%” and the “Average number … per mm of hair” value ([1]; 10^−5 M, D15) was 23.3 per mm of hair.
